≈ marks a conversion by molar mass, not a printed value.
Legend:
Assay in all cases: Minimum Inhibitory Concentration (MIC), agar dilution in Mueller Hinton Agar
Assay type in all cases: cell-based
[1] = system: Streptococcus Pyogenes; conditions: 20 h, culture number 152
Experimental: (§1) The compounds of this invention and their respective pharmaceutically acceptable salts have antibiotic activity against a variety of gram-negative bacteria including Escherichia coli, Klebsiella pneumoniae, and Pseudomonas aeruginosa. The compounds are useful for treating bacterial infections in animals, including and most preferably humans. Compounds of the invention are tested for in vitro antimicrobial activity using standard testing procedures such as the determination of minimum inhibitory concentration (MIC) by methods described in "Methods for Dilution Antimicrobial Susceptibility Tests for Bacteria That Grow Aerobically" (M7-A) Published December 1985 by the National Committee for Clinical Laboratory Standards, 771 East Lancaster Avenue, Villanova, Pa. 19084. Briefly, MIC values are determined in unsupplemented Mueller Hinton Agar (MHA). The compounds tested are diluted serially into molten MHA at 47° C. The agar is poured into petri dishes and allowed to harden. The various bacteria used for testing are grown overnight on MHA at 35° C. and transferred to Tryptiease Soy Broth (TSB) until a turbidity of 0.5 McFarland standard is obtained. The bacteria are diluted one to twenty in TSB and inoculated on the plates (1 μl using a Steers replicator).

[2] = system: Enterobacter Cloacae; conditions: 20 h
Experimental: as §1

[3] = system: Klebsiella Oxytoca; conditions: 20 h
Experimental: as §1

[4] = system: Staphylococcus Aureus; conditions: 20 h
Experimental: as §1

[5] = system: Streptococcus Faecalis; conditions: Enterococcus faecalis, 20 h; culture number 694
Experimental: as §1

[6] = system: Escherichia Coli; conditions: 20 h
Experimental: as §1

[7] = system: Citrobacter Freundli; conditions: 20 h, culture number 3507
Experimental: as §1

[8] = system: Pseudomonas Aeruginosa; conditions: 20 h
Experimental: as §1

[9] = system: Proteus Vulgaris; conditions: 20 h, culture number 9679
Experimental: as §1

[10] = system: Streptococcus Pneumoniae; conditions: 20 h, culture number 41
Experimental: as §1

[11] = system: Klebsiella Pneumoniae; conditions: 20 h, culture number 58
Experimental: as §1

[12] = system: Serratia Marcescens; conditions: 20 h
Experimental: as §1

Row | MIC [1] | MIC ([2]; culture number 9381) | MIC ([2]; culture number 9382) | MIC ([3]; culture number 9383) | MIC ([3]; culture number 9384) | MIC ([4]; culture number 3665) | MIC ([4]; culture number 6685) | MIC ([4]; culture number 9218) | MIC [5] | MIC ([6]; culture number 9379) | MIC ([6]; culture number 9380) | MIC ([6]; culture number 9451) | MIC [7] | MIC ([8]; culture number 231) | MIC ([8]; culture number 9191) | MIC [9] | MIC [10] | MIC [11] | MIC ([12]; culture number 6888) | MIC ([12]; culture number 9888) | SMILES
1 | 16 µg/mL (≈ 21.6 µM) | > 64 µg/mL | 1 µg/mL (≈ 1.35 µM) | 4 µg/mL (≈ 5.4 µM) | 0.25 µg/mL (≈ 0.338 µM) | > 64 µg/mL | > 64 µg/mL | > 64 µg/mL | > 64 µg/mL | 0.5 µg/mL (≈ 0.675 µM) | 0.25 µg/mL (≈ 0.338 µM) | 0.5 µg/mL (≈ 0.675 µM) | 2 µg/mL (≈ 2.7 µM) | > 64 µg/mL | 64 µg/mL (≈ 86.4 µM) | 0.25 µg/mL (≈ 0.338 µM) | > 64 µg/mL | 0.5 µg/mL (≈ 0.675 µM) | 1 µg/mL (≈ 1.35 µM) | – | CCCCn1cc(O)c(=O)cc1C(=O)NN1CCN(S(=O)(=O)NC(=O)N2C[C@H](NC(=O)/C(=N\OC(C)(C)C(=O)O)c3csc(N)n3)C2=O)C1=O [E42 (b), Propanoic acid, 2-[[[1-(2-amino-4-thiazolyl)-2-[[1-[[[[3-[[(1-butyl-1,4-dihydro-5-hydroxy-4-oxo-2-pyridinyl)carbonyl]amino]-2-oxo-1-imidazolidinyl]sulfonyl]amino]carbonyl]-2-oxo-3-azetidinyl]amino]-2-oxoethylidene]amino]oxy]-2-methyl-, [S-(Z)]-]
2 | 4 µg/mL (≈ 5.84 µM) | > 64 µg/mL | 1 µg/mL (≈ 1.46 µM) | 8 µg/mL (≈ 11.7 µM) | 0.5 µg/mL (≈ 0.73 µM) | > 64 µg/mL | > 64 µg/mL | > 64 µg/mL | > 64 µg/mL | 0.25 µg/mL (≈ 0.365 µM) | 0.25 µg/mL (≈ 0.365 µM) | 0.5 µg/mL (≈ 0.73 µM) | 0.5 µg/mL (≈ 0.73 µM) | 4 µg/mL (≈ 5.84 µM) | 8 µg/mL (≈ 11.7 µM) | 0.06 µg/mL (≈ 0.0876 µM) | > 64 µg/mL | 0.5 µg/mL (≈ 0.73 µM) | 0.5 µg/mL (≈ 0.73 µM) | – | CC(C)(O/N=C(\C(=O)N[C@H]1CN(C(=O)NS(=O)(=O)N2CCN(NC(=O)c3cccc(=O)n3O)C2=O)C1=O)c1csc(N)n1)C(=O)O [E42 (c), Propanoic acid, 2-[[[1-(2-amino-4-thiazolyl)-2[[1-[[[[3-[[(1,6-dihydro-1-hydroxy-2-oxo-6-pyridinyl)carbonyl]amino]-2-oxo-1-imidazolidinyl]sulfonyl]amino]carbonyl]-2-oxo-3-azetidinyl]-amino]-2-oxoethylidene]amino]oxy]-2-methyl-, [S-(Z)]-]
3 | 128 µg/mL (≈ 183 µM) | 64 µg/mL (≈ 91.6 µM) | 4 µg/mL (≈ 5.73 µM) | 1 µg/mL (≈ 1.43 µM) | 0.5 µg/mL (≈ 0.716 µM) | > 128 µg/mL | > 128 µg/mL | > 128 µg/mL | > 128 µg/mL | 0.06 µg/mL (≈ 0.0859 µM) | < 0.015 µg/mL | 0.06 µg/mL (≈ 0.0859 µM) | 0.5 µg/mL (≈ 0.716 µM) | 2 µg/mL (≈ 2.86 µM) | 2 µg/mL (≈ 2.86 µM) | 0.5 µg/mL (≈ 0.716 µM) | > 128 µg/mL | 2 µg/mL (≈ 2.86 µM) | 0.25 µg/mL (≈ 0.358 µM) | – | Cn1cc(O)c(=O)cc1C(=O)NN1CCN(S(=O)(=O)NC(=O)N2C[C@H](NC(=O)/C(=N\OC(C)(C)C(=O)O)c3csc(N)n3)C2=O)C1=O [E42 (a)]

More lines, now with the values behind:

Row | SMILES | MIC [1] | MIC ([2]; culture number 9381) | MIC ([2]; culture number 9382) | MIC ([3]; culture number 9383) | MIC ([3]; culture number 9384) | MIC ([4]; culture number 3665) | MIC ([4]; culture number 6685) | MIC ([4]; culture number 9218) | MIC [5] | MIC ([6]; culture number 9379) | MIC ([6]; culture number 9380) | MIC ([6]; culture number 9451) | MIC [7] | MIC ([8]; culture number 231) | MIC ([8]; culture number 9191) | MIC [9] | MIC [10] | MIC [11] | MIC ([12]; culture number 6888) | MIC ([12]; culture number 9888)
4 | CC(C)(O/N=C(\C(=O)N[C@H]1CN(C(=O)NS(=O)(=O)n2nc(-c3cc(=O)c(O)c[nH]3)[nH]c2=O)C1=O)c1csc(N)n1)C(=O)O [E23 (a), propanoic acid, 2-[[[1-(2-amino-4-thiazolyl)-2-[[1-[[[[3-(1,4-dihydro-5-hydroxy-4-oxo-2-pyridinyl)-2,5-dihydro-5-oxo-1H-1,2,4-triazol-1-yl]sulfonyl]amino]carbonyl]-2-oxo-3-azetidinyl]amino]-2-oxoethylidene]amino]oxy]-2-methyl-, [S-(Z)]-] | 16 µg/mL (≈ 25 µM) | 4 µg/mL (≈ 6.24 µM) | 0.5 µg/mL (≈ 0.781 µM) | 0.03 µg/mL (≈ 0.0468 µM) | 0.03 µg/mL (≈ 0.0468 µM) | > 64 µg/mL | > 64 µg/mL | > 64 µg/mL | > 64 µg/mL | < 0.008 µg/mL | < 0.008 µg/mL | < 0.008 µg/mL | 0.03 µg/mL (≈ 0.0468 µM) | 0.5 µg/mL (≈ 0.781 µM) | 0.5 µg/mL (≈ 0.781 µM) | 0.03 µg/mL (≈ 0.0468 µM) | > 64 µg/mL | 0.25 µg/mL (≈ 0.39 µM) | 0.015 µg/mL (≈ 0.0234 µM) | –
5 | CC(C)(O/N=C(\C(=O)N[C@H]1CN(C(=O)NS(=O)(=O)N2CCN(C(=O)c3cc(=O)c(O)c[nH]3)CC2=O)C1=O)c1csc(N)n1)C(=O)O [Compound E17] | 16 µg/mL (≈ 23.4 µM) | 64 µg/mL (≈ 93.6 µM) | 1 µg/mL (≈ 1.46 µM) | 0.5 µg/mL (≈ 0.731 µM) | 0.125 µg/mL (≈ 0.183 µM) | > 64 µg/mL | > 64 µg/mL | > 64 µg/mL | > 64 µg/mL | 0.015 µg/mL (≈ 0.0219 µM) | < 0.008 µg/mL | 0.015 µg/mL (≈ 0.0219 µM) | 0.25 µg/mL (≈ 0.366 µM) | 0.5 µg/mL (≈ 0.731 µM) | 0.5 µg/mL (≈ 0.731 µM) | 0.25 µg/mL (≈ 0.366 µM) | > 64 µg/mL | 1 µg/mL (≈ 1.46 µM) | 0.125 µg/mL (≈ 0.183 µM) | –
6 | Cn1c(-c2cc(=O)c(O)c[nH]2)nn(S(=O)(=O)NC(=O)N2C[C@H](NC(=O)/C(=N\OC(C)(C)C(=O)O)c3csc(N)n3)C2=O)c1=O [E23 (b)] | 16 µg/mL (≈ 24.4 µM) | 4 µg/mL (≈ 6.11 µM) | 0.5 µg/mL (≈ 0.764 µM) | 0.03 µg/mL (≈ 0.0458 µM) | 0.03 µg/mL (≈ 0.0458 µM) | > 64 µg/mL | > 64 µg/mL | > 64 µg/mL | > 64 µg/mL | < 0.008 µg/mL | < 0.008 µg/mL | < 0.008 µg/mL | 0.03 µg/mL (≈ 0.0458 µM) | 0.125 µg/mL (≈ 0.191 µM) | 0.25 µg/mL (≈ 0.382 µM) | 0.03 µg/mL (≈ 0.0458 µM) | > 64 µg/mL | 0.25 µg/mL (≈ 0.382 µM) | 0.015 µg/mL (≈ 0.0229 µM) | –
7 | Nc1nc(/C(=N/OCC(=O)O)C(=O)N[C@H]2CN(C(=O)NS(=O)(=O)N3CCN(C(=O)c4cc(=O)c(O)c[nH]4)CC3)C2=O)cs1 [Compound E19, Acetic acid, 2-[[[1-(2-amino-4-thiazolyl)-2-[[1-[[[[4-[(1,4-dihydro-5-hydroxy-4-oxo-2-pyridinyl)carbonyl]-1-piperazinyl]sulfonyl]amino]carbonyl]-2-oxo-3-azetidinyl]amino]-2-oxoethylidene]amino]oxy]-, [S-(Z)]-] | 64 µg/mL (≈ 99.8 µM) | 128 µg/mL (≈ 200 µM) | 16 µg/mL (≈ 24.9 µM) | 64 µg/mL (≈ 99.8 µM) | 0.5 µg/mL (≈ 0.779 µM) | > 128 µg/mL | > 128 µg/mL | > 128 µg/mL | > 128 µg/mL | 0.25 µg/mL (≈ 0.39 µM) | 0.06 µg/mL (≈ 0.0935 µM) | 0.125 µg/mL (≈ 0.195 µM) | 2 µg/mL (≈ 3.12 µM) | 8 µg/mL (≈ 12.5 µM) | 8 µg/mL (≈ 12.5 µM) | 4 µg/mL (≈ 6.23 µM) | > 128 µg/mL | 8 µg/mL (≈ 12.5 µM) | 1 µg/mL (≈ 1.56 µM) | –
8 | Nc1nc(C(=NOCC(=O)O)C(=O)NC2CN(C(=O)NS(=O)(=O)N3CC(CNC(=O)c4cc(=O)c(O)c[nH]4)OC3=O)C2=O)cs1 (centres unmarked) [E27 (a), [[[1-(2-amino-4-thiazolyl)-2-[[1-[[[[4-[[(1,4-dihydro-5-hydroxy-4-oxo-2-pyridinyl)carbonyl]amino]-[2-oxo-5-oxazolydinyl]methyl]sulfonyl]amino]carbonyl]-2-oxo-3-azetidinyl]amino]-2-oxoethylidene]amino]oxy] acetic acid] | 16 µg/mL (≈ 23.8 µM) | 128 µg/mL (≈ 191 µM) | 2 µg/mL (≈ 2.98 µM) | 4 µg/mL (≈ 5.96 µM) | 0.25 µg/mL (≈ 0.372 µM) | – | – | – | – | < 0.06 µg/mL | < 0.06 µg/mL | < 0.06 µg/mL | 0.25 µg/mL (≈ 0.372 µM) | 4 µg/mL (≈ 5.96 µM) | 64 µg/mL (≈ 95.3 µM) | 0.5 µg/mL (≈ 0.745 µM) | – | 0.5 µg/mL (≈ 0.745 µM) | – | 0.5 µg/mL (≈ 0.745 µM)
9 | CC(C)(ON=C(C(=O)NC1CN(C(=O)NS(=O)(=O)N2CC(CNC(=O)c3cc(=O)c(O)c[nH]3)OC2=O)C1=O)c1csc(N)n1)C(=O)O (centres unmarked) [E27 (b)] | 64 µg/mL (≈ 91.5 µM) | 128 µg/mL (≈ 183 µM) | 8 µg/mL (≈ 11.4 µM) | 4 µg/mL (≈ 5.72 µM) | 0.25 µg/mL (≈ 0.357 µM) | – | – | – | – | 0.125 µg/mL (≈ 0.179 µM) | 0.03 µg/mL (≈ 0.0429 µM) | 0.06 µg/mL (≈ 0.0858 µM) | 0.5 µg/mL (≈ 0.715 µM) | 4 µg/mL (≈ 5.72 µM) | 8 µg/mL (≈ 11.4 µM) | 0.5 µg/mL (≈ 0.715 µM) | – | 2 µg/mL (≈ 2.86 µM) | – | 0.5 µg/mL (≈ 0.715 µM)
